The source of these data is patent publication US20220242870A1, “HETEROCYCLE-FUSED PYRIMIDINE DERIVATIVE AND USE THEREOF” (VORONOI Inc., priority 2019, published 2022).

By IC50 is commonly meant the concentration needed to halve the response being measured. Read a low IC50 as greater potency. As a reminder, the GI50 is the concentration giving 50% growth inhibition. Read a low GI50 as more potent growth inhibition.

The target of one assay is T1, human FLT3-ITD enzyme (Homo sapiens, UniProt P36888).
T1 sequence (P36888 1-993): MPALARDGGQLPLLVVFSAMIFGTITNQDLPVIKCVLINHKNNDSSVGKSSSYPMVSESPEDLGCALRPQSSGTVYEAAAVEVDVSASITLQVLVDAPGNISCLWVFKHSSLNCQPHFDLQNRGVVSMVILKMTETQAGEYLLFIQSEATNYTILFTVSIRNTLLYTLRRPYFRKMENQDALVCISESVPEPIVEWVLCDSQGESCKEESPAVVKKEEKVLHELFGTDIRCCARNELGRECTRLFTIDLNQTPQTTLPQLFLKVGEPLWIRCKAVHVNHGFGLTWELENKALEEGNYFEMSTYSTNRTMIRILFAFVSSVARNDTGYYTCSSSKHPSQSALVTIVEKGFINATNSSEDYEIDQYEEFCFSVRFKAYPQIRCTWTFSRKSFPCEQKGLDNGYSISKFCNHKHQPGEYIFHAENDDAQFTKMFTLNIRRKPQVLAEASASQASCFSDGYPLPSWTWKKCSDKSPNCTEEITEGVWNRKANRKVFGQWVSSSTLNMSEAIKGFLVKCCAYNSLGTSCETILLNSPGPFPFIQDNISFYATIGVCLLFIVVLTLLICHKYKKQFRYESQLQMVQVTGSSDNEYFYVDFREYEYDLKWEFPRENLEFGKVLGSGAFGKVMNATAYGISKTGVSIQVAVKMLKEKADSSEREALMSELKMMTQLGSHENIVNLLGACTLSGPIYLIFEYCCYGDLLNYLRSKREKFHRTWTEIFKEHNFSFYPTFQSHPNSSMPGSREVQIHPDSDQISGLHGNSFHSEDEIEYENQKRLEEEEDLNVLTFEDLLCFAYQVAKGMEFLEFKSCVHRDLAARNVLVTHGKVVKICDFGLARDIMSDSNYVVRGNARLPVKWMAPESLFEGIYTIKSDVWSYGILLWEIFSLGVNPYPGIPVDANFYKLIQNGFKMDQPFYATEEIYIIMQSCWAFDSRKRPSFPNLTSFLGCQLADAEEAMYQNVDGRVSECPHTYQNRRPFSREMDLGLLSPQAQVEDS
The experiment in a line: FLT3 enzyme inhibitory ability (ADP-Glo kinase assay). Type of assay: biochemical. The conditions noted are these: human FLT3-ITD enzyme 10 ng, ATP 10 μM, 25° C. 1 hour. As to the method:
The inhibitory activities of the example compounds according to the present invention to the FLT3-ITD enzyme were evaluated. Specifically, the compound of the present invention was reacted with a purified human FLT3-ITD enzyme (Signalchem). A composition of 40 mM Tris-HCl pH 7.4, 20 mM MgCl2, 0.5 mg/mL BSA and 50 μM DTT was used as a reaction buffer, and reactions of all test matters were performed on the reaction buffer. Upon the test, human FLT3-ITD enzyme (10 ng), purified ATP (10 μM) and a specific substrate solution were reacted at 25° C. for 1 hour, and then the enzyme activity was identified using an in vitro ADP-Glo™ kinase assay (Promega). The enzyme activity reaction solution, the ADP-Glo reaction solution and the enzyme ability detection solution were reacted in a ratio of 2:2:1, and the activity inhibition degree of the enzyme was measured as luminescence. Using the solvent-treated group that was not treated with the compound as a control group, the enzyme activity inhibition degree according to the treatment concentration of each compound was calculated based on the enzyme activity fluorescence degree, and the concentration of each compound that inhibited 50%, IC50 (nM), was determined using Prism Software (version 5.01, GraphPad).

In a further assay the target is T2, human GST-HPK1 (1-346) (Homo sapiens, UniProt Q92918).
T2 construct: purified human GST-HPK1 (1-346, Signalchem) enzyme; purchased Signalchem
T2 sequence (Q92918 1-346): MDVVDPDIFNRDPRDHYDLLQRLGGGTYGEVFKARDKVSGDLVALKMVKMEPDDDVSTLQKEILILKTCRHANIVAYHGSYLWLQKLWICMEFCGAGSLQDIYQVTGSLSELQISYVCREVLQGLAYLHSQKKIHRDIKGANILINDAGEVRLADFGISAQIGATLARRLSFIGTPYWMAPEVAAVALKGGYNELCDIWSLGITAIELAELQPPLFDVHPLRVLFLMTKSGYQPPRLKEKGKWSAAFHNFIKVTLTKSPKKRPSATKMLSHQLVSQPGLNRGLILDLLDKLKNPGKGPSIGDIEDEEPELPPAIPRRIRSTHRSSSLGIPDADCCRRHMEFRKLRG
The experiment in a line: HPK1 enzyme inhibitory ability (ADP-Glo kinase assay). The conditions noted are these: human GST-HPK1 3 ng, ATP 3 uM, 25° C. 2 hours. Type of assay: biochemical. The method, then: In order to evaluate the inhibitory activities of the example compounds according to the present invention on the HPK1 (hematopoietic progenitor kinase 1) enzyme, the following experiment was performed. The example compounds were reacted with the purified human GST-HPK1 (1-346, Signalchem) enzyme to evaluate the enzyme inhibitory ability by the following method. As the reaction buffer, a composition of 40 mM Tris-HCl pH 7.4, 20 mM MgCl2, 0.5 mg/mL BSA and 50 uM DTT was used, and reactions of all test matters were performed on the reaction buffer. Upon the test, the human GST-HPK1 (3 ng) enzyme, the purified ATP (3 uM) and a specific substrate solution were reacted at 25° C. for 2 hours, and then the enzyme activity was identified using an in vitro ADP-Glo™ kinase assay (promega). The enzyme activity reaction solution, the ADP-Glo reaction solution and the enzyme ability detection solution were reacted in a ratio of 2:2:1 to measure luminescence. The enzyme activity inhibition degree according to the treatment concentrations of the respective compounds was calculated based on the fluorescence of the enzyme activity of the solvent control group that was not treated with the compound, where the concentration of each compound that inhibited enzyme activity inhibition by 50% was determined as an IC50 (nM) value.
A general note: ADP-Glo turns the ADP formed in a reaction into a luminescent signal.

For the next assay, the system named is MCF-7 cells. Nature of the assay: Breast cancer cell line proliferation inhibitory activity (CellTiter-Glo 2.0). Type of assay: cell-based. The following applies: Homo sapiens, MCF7, 120 hours. The method, then: In order to evaluate the breast cancer cell line cell proliferation inhibitory activities of Examples according to the present invention, the following experiment was performed. Breast cancer cells of MCF-7 (Korean Cell Line Bank) were planted in a clear bottom white 96-well plate (Corning) so as to be 3×10^3/150 μl/well, and a culture solution comprising the compound continuously diluted in multiples of 3 at 12 concentrations (0.00001-2 mM) and a DMSO control group was added by 0.5 μl/well and treated so that the final concentration was 0.00005-10 μM, and then cultured in a 37° C. CO2 incubator for 120 hours. After 120 hours, the plate treated with the compound is taken out, and CellTiter-Glo® 2.0 Assay (Promega) solution is treated at 150 μl/well and then they mix well. They mix well at room temperature for 10 minutes or so, and the fluorescence is measured with a microplate reader. The data were expressed as a percentage in proportion to the vehicle standard treated cells, the GI50 (nM) values were calculated using GraphPad Prism 8.3.0 (GraphPad software Inc., San Diego), and the results were shown in Table 3 below.
A general note: ATP-based viability assays read luminescence as a measure of living cells.

For `OCCN1CC[C@@H](Oc2cc(Nc3nc(N4N=CCC4c4ccccc4)c4sccc4n3)cc(C3CC3)c2)C1` (stereo partly drawn) [Example 14, 2-((3R)-3-(3-cyclopropyl-5-((4-(5-phenyl-4,5-dihydro-1H-pyrazol-1-yl)thieno[3,2-d]pyrimidin-2-yl)amino)phenoxy)pyrrolidin-1-yl)ethan-1-ol], the IC50 against human FLT3-ITD enzyme and on human GST-HPK1 (1-346) was more than 500 nM each time. The same molecule registered a GI50 in the assay on MCF-7 cells of more than 500 nM.

Turning to `COc1cc(Nc2nc(N3N=CCC3c3ccccc3)c3sccc3n2)cc(C(=O)N2CCN(CCO)CC2)c1` (stereo not drawn) [Example 15, (4-(2-hydroxyethyl)piperazin-1-yl)(3-methoxy-5-((4-(5-phenyl-4,5-dihydro-1H-pyrazol-1-yl)thieno[3,2-d]pyrimidin-2-yl)amino)phenyl)methanone], the IC50 at human FLT3-ITD enzyme and on human GST-HPK1 (1-346) was more than 500 nM each time. The GI50 in the assay on MCF-7 cells is more than 500 nM.

As to `CN(C)[C@@H]1CCN(c2cccc(Nc3nc(N4N=CCC4c4ccccc4)c4sccc4n3)c2)C1` (stereo partly drawn) [Example 17, N-(3-((R)-3-(dimethylamino)pyrrolidin-1-yl)phenyl)-4-(5-phenyl-4,5-dihydro-1H-pyrazol-1-yl)thieno[3,2-d]pyrimidin-2-amine], the IC50 on human FLT3-ITD enzyme and at human GST-HPK1 (1-346) was more than 500 nM throughout. Also, the GI50 with MCF-7 cells is more than 500 nM.

Turning to `CN(C)[C@H]1CCN(c2cccc(Nc3nc(N4N=CCC4c4ccccc4)c4sccc4n3)c2)C1` (stereo partly drawn) [Example 18, N-(3-((S)-3-(dimethylamino)pyrrolidin-1-yl)phenyl)-4-(5-phenyl-4,5-dihydro-1H-pyrazol-1-yl)thieno[3,2-d]pyrimidin-2-amine], the IC50 against human FLT3-ITD enzyme and on human GST-HPK1 (1-346) was more than 500 nM in each case. In the assay with MCF-7 cells, this molecule yielded a GI50 of more than 500 nM.

Take `COc1cc(Nc2nc(N3OCC[C@@H]3c3ccccc3)c3sccc3n2)ccc1N1CCC(N2CCN(C)CC2)CC1` [Example 58, (R)-N-(3-methoxy-4-(4-(4-methylpiperazin-1-yl)piperidin-1-yl)phenyl)-4-(3-phenylisoxazolidin-2-yl)thieno[3,2-d]pyrimidin-2-amine]: the IC50 against human FLT3-ITD enzyme and against human GST-HPK1 (1-346) was more than 500 nM in each case. Also, the GI50 in the assay on MCF-7 cells is more than 500 nM.

With `CN1CCN(c2ccc(Nc3nc(N4OCC[C@@H]4c4ccccc4)c4sccc4n3)cc2)CC1` [Example 60, (R)-N-(4-(4-methylpiperazin-1-yl)phenyl)-4-(3-phenylisoxazolidin-2-yl)thieno[3,2-d]pyrimidin-2-amine], the concentration for half-maximal inhibition (IC50) against human FLT3-ITD enzyme and against human GST-HPK1 (1-346) was more than 500 nM each time. The same molecule showed a GI50 in the assay on MCF-7 cells of more than 500 nM.

In the case of `CN(C)[C@@H]1CCN(c2cccc(Nc3nc(N4OCC[C@H]4c4ccccc4)c4sccc4n3)c2)C1` [Example 61, N-(3-((R)-3-(dimethylamino)pyrrolidin-1-yl)phenyl)-4-((S)-3-phenylisoxazolidin-2-yl)thieno[3,2-d]pyrimidin-2-amine], the IC50 at human FLT3-ITD enzyme and on human GST-HPK1 (1-346) was more than 500 nM throughout. In addition, the GI50 in the assay on MCF-7 cells was more than 500 nM.

For the molecule `CN(C)[C@H]1CCN(c2cccc(Nc3nc(N4OCC[C@H]4c4ccccc4)c4sccc4n3)c2)C1` [Example 62, N-(3-((S)-3-(dimethylamino)pyrrolidin-1-yl)phenyl)-4-((S)-3-phenylisoxazolidin-2-yl)thieno[3,2-d]pyrimidin-2-amine], the IC50 at human FLT3-ITD enzyme and against human GST-HPK1 (1-346) was more than 500 nM in each case. The GI50 in the assay with MCF-7 cells was more than 500 nM.

In the case of `CN(C)[C@@H]1CCN(c2cccc(Nc3nc(N4OCC[C@@H]4c4ccccc4)c4sccc4n3)c2)C1` [Example 63, N-(3-((R)-3-(dimethylamino)pyrrolidin-1-yl)phenyl)-4-((R)-3-phenylisoxazolidin-2-yl)thieno[3,2-d]pyrimidin-2-amine], the half-inhibitory concentration (IC50) on human FLT3-ITD enzyme and at human GST-HPK1 (1-346) was more than 500 nM in each case. The GI50 with MCF-7 cells is more than 500 nM.

Consider `COc1cc(Nc2nc(N3OCC[C@H]3c3ccccc3)c3cc[nH]c3n2)cc(C(=O)N2CCN(CCO)CC2)c1` [Example 94, (S)-(4-(2-hydroxyethyl)piperazin-1-yl)(3-methoxy-5-((4-(3-phenylisoxazolidin-2-yl)-7H-pyrrolo[2,3-d]pyrimidin-2-yl)amino)phenyl)methanone], for which the IC50 against human FLT3-ITD enzyme and against human GST-HPK1 (1-346) was more than 500 nM throughout.

As to `COc1ccc2c(c1Nc1nc(N3OCC[C@H]3c3ccccc3)c3cc[nH]c3n1)CCNC2` [Example 113, (S)-6-methoxy-N-(4-(3-phenylisoxazolidin-2-yl)-7H-pyrrolo[2,3-d]pyrimidin-2-yl)-1,2,3,4-tetrahydroisoquinolin-5-amine], the IC50 on human GST-HPK1 (1-346) is more than 500 nM.

For `COc1ccc2c(c1Nc1nc(N3OCC[C@H]3c3ccccc3)c3cc[nH]c3n1)CCN(C)C2` [Example 114, (S)-6-methoxy-2-methyl-N-(4-(3-phenylisoxazolidin-2-yl)-7H-pyrrolo[2,3-d]pyrimidin-2-yl)-1,2,3,4-tetrahydroisoquinolin-5-amine], the IC50 at human GST-HPK1 (1-346) was more than 500 nM.

In the case of `COc1cc2c(cc1Nc1nc(N3OCC[C@H]3c3ccccc3)c3c(C#N)c[nH]c3n1)CN(C1CC1)CC2` [Example 122, (S)-2-((2-cyclopropyl-6-methoxy-1,2,3,4-tetrahydroisoquinolin-7-yl)amino)-4-(3-phenylisoxazolidin-2-yl)-7H-pyrrolo[2,3-d]pyrimidine-5-carbonitrile], the IC50 on human GST-HPK1 (1-346) is more than 500 nM.

`FC(F)(F)c1c[nH]c2nc(Nc3ccc4c(c3)CCNC4)nc(N3OCC[C@H]3c3ccccc3)c12` [Example 124, (S)-N-(4-(3-phenylisoxazolidin-2-yl)-5-(trifluoromethyl)-7H-pyrrolo[2,3-d]pyrimidin-2-yl)-1,2,3,4-tetrahydroisoquinolin-6-amine]: at human GST-HPK1 (1-346), the IC50 is more than 500 nM.
